{"source": "ChEMBL document CHEMBL1201862", "about": "“PubChem BioAssay data set” (2004)", "key": {"[1]": {"molecular_target": "T1, Replicative DNA helicase DnaB (Mycobacterium tuberculosis, UniProt P9WMR3)", "T1 sequence (P9WMR3 whole entry)": "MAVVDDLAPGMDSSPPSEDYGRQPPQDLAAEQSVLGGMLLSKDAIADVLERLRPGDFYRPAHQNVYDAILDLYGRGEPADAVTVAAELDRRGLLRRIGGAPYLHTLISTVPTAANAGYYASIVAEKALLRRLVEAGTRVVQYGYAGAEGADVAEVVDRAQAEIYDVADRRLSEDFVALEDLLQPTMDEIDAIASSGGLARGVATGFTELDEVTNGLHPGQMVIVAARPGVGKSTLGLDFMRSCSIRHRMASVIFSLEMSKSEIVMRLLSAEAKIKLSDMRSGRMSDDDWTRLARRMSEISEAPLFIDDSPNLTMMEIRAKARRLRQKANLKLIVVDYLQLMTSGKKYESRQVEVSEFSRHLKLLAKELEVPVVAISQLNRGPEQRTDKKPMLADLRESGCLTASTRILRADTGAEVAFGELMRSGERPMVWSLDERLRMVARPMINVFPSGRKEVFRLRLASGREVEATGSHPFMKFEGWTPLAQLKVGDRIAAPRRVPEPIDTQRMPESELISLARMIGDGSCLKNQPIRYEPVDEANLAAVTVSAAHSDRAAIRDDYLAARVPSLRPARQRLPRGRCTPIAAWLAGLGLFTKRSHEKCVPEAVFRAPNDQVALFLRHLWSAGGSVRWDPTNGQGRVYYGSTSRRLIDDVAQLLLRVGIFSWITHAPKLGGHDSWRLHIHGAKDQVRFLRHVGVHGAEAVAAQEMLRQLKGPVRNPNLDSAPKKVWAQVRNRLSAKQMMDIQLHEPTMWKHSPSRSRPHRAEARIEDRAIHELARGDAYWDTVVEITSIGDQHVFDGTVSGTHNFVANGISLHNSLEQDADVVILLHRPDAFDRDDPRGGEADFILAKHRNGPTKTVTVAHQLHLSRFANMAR", "assay": "DnaB intein splicing inhibitors, dose response, biochemical, cell-free fluorescence (AID 449749)", "format": "functional"}, "[2]": {"molecular_target": "T2, Protein RecA (Mycobacterium tuberculosis, UniProt P9WHJ3)", "T2 sequence (P9WHJ3 whole entry)": "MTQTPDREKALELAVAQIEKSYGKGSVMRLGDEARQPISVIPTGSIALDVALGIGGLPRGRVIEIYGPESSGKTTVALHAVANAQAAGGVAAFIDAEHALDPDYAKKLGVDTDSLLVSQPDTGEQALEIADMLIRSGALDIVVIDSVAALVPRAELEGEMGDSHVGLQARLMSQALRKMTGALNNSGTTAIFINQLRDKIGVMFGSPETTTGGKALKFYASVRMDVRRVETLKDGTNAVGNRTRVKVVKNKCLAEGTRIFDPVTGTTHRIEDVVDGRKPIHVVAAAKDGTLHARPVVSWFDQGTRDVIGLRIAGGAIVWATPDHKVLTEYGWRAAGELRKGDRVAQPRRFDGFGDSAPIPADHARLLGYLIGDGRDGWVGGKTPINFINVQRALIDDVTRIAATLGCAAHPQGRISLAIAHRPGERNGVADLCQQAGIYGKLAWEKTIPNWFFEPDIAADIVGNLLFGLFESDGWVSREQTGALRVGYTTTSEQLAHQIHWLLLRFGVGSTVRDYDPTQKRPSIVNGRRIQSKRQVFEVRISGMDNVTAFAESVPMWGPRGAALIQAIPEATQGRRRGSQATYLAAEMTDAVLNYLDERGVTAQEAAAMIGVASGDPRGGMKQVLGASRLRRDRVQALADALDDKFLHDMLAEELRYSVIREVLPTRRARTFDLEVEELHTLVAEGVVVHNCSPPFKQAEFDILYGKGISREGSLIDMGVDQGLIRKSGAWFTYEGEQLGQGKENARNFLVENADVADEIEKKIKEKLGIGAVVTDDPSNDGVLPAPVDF", "assay": "Fluorescence Cell-Free Homogeneous Dose Retest to Identify Inhibitors of RecA-Intein Splicing Activity. [Related pubchem assays (depositor defined):AID2097, AID2223, AID489010, AID492950]", "format": "functional"}, "[3]": {"molecular_target": "T3, Tyrosyl-DNA phosphodiesterase 2 (Homo sapiens, UniProt O95551)", "T3 sequence (O95551 whole entry)": "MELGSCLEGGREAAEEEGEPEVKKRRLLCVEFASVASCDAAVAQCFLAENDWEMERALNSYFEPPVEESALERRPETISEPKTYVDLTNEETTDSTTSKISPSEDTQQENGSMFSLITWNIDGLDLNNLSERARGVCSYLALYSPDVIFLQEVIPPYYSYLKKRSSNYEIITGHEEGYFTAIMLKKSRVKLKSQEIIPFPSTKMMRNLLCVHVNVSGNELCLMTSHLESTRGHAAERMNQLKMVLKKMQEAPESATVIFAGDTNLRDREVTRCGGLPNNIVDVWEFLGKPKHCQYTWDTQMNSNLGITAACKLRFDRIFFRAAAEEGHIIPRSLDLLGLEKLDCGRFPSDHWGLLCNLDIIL", "assay": "human TDP2 enzyme inhibitors, dose response, biochemical, epi absorbance, IC50 (AID 743297)"}}, "note": "The source made the active and inactive calls."}
{"molecule": "Cc1cccc(NC2=C(NC(=O)c3ccccc3)C(=O)c3ccccc3C2=O)c1", "values": [{"measurement": "AC50", "setting": "[1]", "value": "3.96 µM (active)"}, {"measurement": "EC50", "setting": "[2]", "value": "1.71 µM (active)"}]}
{"molecule": "CC(C)=CCC1=C(OCC(=O)O)C(=O)c2ccccc2C1=O", "values": [{"measurement": "AC50", "setting": "[1]", "value": "9.19 µM (active)"}, {"measurement": "EC50", "setting": "[2]", "value": "7.75 µM (active)"}, {"measurement": "IC50", "setting": "[3]", "value": "23.6 µM (inactive)"}]}
{"molecule": "Cc1[nH][nH]c(=O)c1C(c1c(C)[nH][nH]c1=O)c1cn(Cc2ccccc2Cl)c2ccccc12", "values": [{"measurement": "AC50", "setting": "[1]", "value": "0.242 µM (active)"}, {"measurement": "EC50", "setting": "[2]", "value": "0.299 µM (active)"}, {"measurement": "IC50", "setting": "[3]", "value": "54.2 µM (inactive)"}]}
